A short description of data set [1]: doxorubicin release from glucomannan alginate blends (dialysis, absorbance at 485 nm). The data set is classed as physicochemical. As to conditions: from sulfonated glucomannan calcium alginate blend; Hepes Buffered Saline with 30% FBS, 37° C., pH 7.4; n=10.
Procedure: For examination of doxorubicin release from glucomannan alginate blends, sulfated glucomannan as described above was added 1:1 with PRONOVA UP MVM alginate from FMC Biopolymers (Haugesund, Norway), and at a concentration of 2% w/v to a standard nonionic contrast agent (Iohexyl, Omnipaque 300, Amersham Health, Princeton, N.J.). To this 6 mg doxorubicin was added and the mixture was polymerized in 100 mM calcium chloride. Dox loaded hydrogels were then placed into dialysis tubing (molecular weight cut-off of 10,000 DA) sealed at both ends with clips. Dialysis tubing was then placed into a beaker containing 1000-fold excess Hepes Buffered Saline with 30% FBS and incubated at 37° C. and pH 7.4. A doxorubicin standard curve ranging from 0 to 6 mg/mL drug was prepared in saline. From these standard curves the percentage of total drug release was calculated. Doxorubicin release was monitored by measuring the time dependence of the absorbance at 485 nm.
A short description of data set [2]: dissolution of self-gelling alginate gel by alginate lyase. In kind it is biochemical. As to conditions: 0.5 mL of alginate lyase added to 5 mL gel (1.5% calcium alginate, 1% sodium alginate) after 1 hour gelling. An excerpt:
In embodiments, a self-gelling alginate can be modified to contain an optical agent to assess localization. For example, the FDA approved optical agent inodcyanine green has used at a concentration of 0.005% to assess localization after injection with infrared. Gels can be made by mixing a solution of sodium alginate (Protanal SF 120) and a calcium alginate dispersion (Protaweld TX 120). The amount of calcium alginate can be 1.5%, and the amount of sodium alginate can be 1%. The solution and dispersion are mixed and 5 mL of the gel injected into a 50 mL conical tube. The sample was left to gel for 1 hour.

2 molecules from patent publication US20130211249A1, “DRUG ELUTING HYDROGELS FOR CATHETER DELIVERY” (The Johns Hopkins University, priority 2010, published 2013) can be followed below.

In the case of `COc1cccc2c1C(=O)c1c(O)c3c(c(O)c1C2=O)C[C@@](O)(C(=O)CO)C[C@@H]3O[C@H]1C[C@H](N)[C@H](O)[C@H](C)O1` [doxorubicin], the doxorubicin release profile result in data set [1] is “eight”.

B1: alginate lyase: enzymes that catalyze the degradation of alginate (protein, listed as Pseudomonas aeruginosa)
chain: MKTSHLIRIALPGALAAALLASQVSQAADLVPPPGYYAAVGERKGSAGSCPAVPPPYTGSLVFTSKYEGSDSARATLNVKAEKTFRSQIKDITDMERGATKLVTQYMRSGRDGDLACALNWMSAWARAGALQSDDFNHTGKSMRKWALGSLSGAYMRLKFSSSRPLAAHAEQSREIEDWFARLGTQVVRDWSGLPLKKINNHSYWAAWSVMSTAVVTNRRDLFDWAVSEFKVAANQVDEQGFLPNELKRRQRALAYHNYALPPLAMIAPFAQVNGVDLRQENHGALQRLAERVMKGVDDEETFEEKTGEDQDMTDLKVDNKYAWLEPYCALYRCEPNACSRPKKDREPFNSFRLGGEVTRVFSREGGS
Take B1: the “dissolution of hardened alginate gel” value in data set [2] is given as “complete dissolution”.
